The values below come from patent US20080306019A1, “Dopamine Receptor Agonists in the Treatment and Prevention of Hiv-Induced Dementia” (priority 2005, published 2008).

Data set [1] deals with human fetal neurons. To be noted: human fetal neuronal cultures, Turchan et al. 2001; cited from earlier work.
Data set [2] concerns rat hippocampal neurons. In words: Protein carbonyl immunoreactivity in rat hippocampal cell cultures. To be noted: 48-hrs treatment.
For data set [3], the system named is human fetal neurons. The method, then: Culture of Human Brain Cells: Neuronal cultures were prepared as described previously (Magnuson D S, et al. Ann Neurol 1995, 37: 373-380; Nath A, et al. J Virol 1996, 70: 1475-1480; New D, et al. J Neurovirol 1997, 3: 168-173). Human fetal brain specimens of gestational age 12-14 weeks were obtained with the consent of women opting for elective termination of pregnancy. Protocols were carried out with strict adherence to the guidelines of the National Institutes of Health (NIH) and with approval from the University of Kentucky Institutional Review Board. Briefly, after mechanical dissociation, the cells were suspended in Opti-MEM with 5% heat-inactivated fetal bovine serum, 0.2% N2 supplement and 1% antibiotic solution (penicillin G sodium 104 units/ml, streptomycin sulfate 10 μg/ml and amphotericin-B 25 μg/ml) (GIBCO). The cells were maintained in culture flasks at 37° C. in a humidified atmosphere of 5% CO2 and 95% air for at least a month. At least 3 days before the experiment was performed the cells were plated in flat bottom 96 well plates coated with poly-d-lysine. Sample cultures were stained for the neuron-specific enolase, microtubule-associated protein-2, synaptophysin, and glial fibrillary astrocytic protein (GFAP). […] Sample cultures were further characterized for the presence of ER-α and ER-β and dopaminergic neurons.
Neurotoxicity Assay: At the time of the experimental treatment, the culture media was replaced with Locke's buffer containing (in mM) 154 NaCl, 5.6 KCl, 2.3 CaCl2, 1 MgCl2, 3.6 NaHCO3, 5 glucose, 5 N-2-hydroxyethylpiperazine-N′2-ethanesulfonic acid (HEPES) and 1% antibiotic solution (penicillin G sodium 104 units/ml, streptomycin sulfate 10 μg/ml and amphotericin-B 25 μg/ml) (pH 7.2). […] To replicate the stereoisomer specific neuroprotective properties of estrogen, the cultures were treated with either […] (10 nM), or 17α-E2 (10 nM) immediately preceding addition of the HIV proteins plus cocaine. To investigate the neuroprotective properties of other gonadal steroids, the cells were treated with various concentrations of PROG or T, immediately followed by exposure to the HIV proteins plus cocaine. […] Various concentrations of cholesterol were used as treatment prior to incubation with the HIV proteins plus cocaine to further characterize the nature of gonadal steroid neuroprotection. ICI-182,780, DMSO (10 nM), β-cyclodextrin (100 nM) and ethanol (10 nM) were also tested for neurotoxic/protective effects. ICI-182,780 and 17α-E2 were solvated in DMSO. […], T, PROG and cholesterol were β-cyclodextrin encapsulated to provide water solubility. Ethanol was used to solvate DHT. Tat1-72 was produced as indicated above, whereas gp120 was a gift from Chiron Corporation. The ICI-182,780 compound was obtained from Tocris Cookson, Inc. (Ellisville, Mo.). All other chemical agents were supplied by Sigma Chemicals (St. Louis, Mo.). At the end of the incubation period neuronal death was assessed by trypan blue (Sigma) exclusion assay as described previously (Vongher J and Frye C. Pharmacol Biochem Behav 1999, 64: 777-785; Magnuson D S, et al. Ann Neurol 1995, 37: 373-380; Nath A, et al. J Virol 1996, 70: 1475-1480).

Data set [4] has as its system rat hippocampal neurons. In words: Intracellular ROS production (DCF fluorescence) in rat hippocampal neuronal cultures. Format: cell-based. The method, then:
Neuronal cultures were incubated with 10 μM H2DCFDA (Molecular Probes, Eugene, Oreg.) for 60 min at 37° C. in PBS.
No decrease in neuronal viability occur-red in cell cultures subjected to Tat alone or Tat+cocaine after 2 hours of treatment.

`COC(=O)[C@H]1[C@@H](OC(=O)c2ccccc2)C[C@@H]2CC[C@H]1N2C.Cl` [cocaine, Cocaine hydrochloride]: the “cocaine level not neurotoxic (prior work)” value in data set [1] is at most 16 µM. Further, in data set [2], the “levels of protein oxidation, Tat + cocaine vs Tat alone” value was “higher than in cultures treated with just Tat alone”. Also, the “toxicity of HIV proteins combined with cocaine” value in data set [3] (Tat 40 nM + gp120 32.5 pM + cocaine 1.6 μM) is “synergistic neurotoxicity”. The “toxicity alone vs Locke's buffer” value in data set [3] (substance alone, 15 hours) is recorded as “Neither the HIV proteins, Tat plus gp120, nor cocaine alone were more toxic than the Locke's buffer control”. The “intracellular ROS production, cocaine + Tat vs Tat alone” value in data set [4] (1.6 μM cocaine + 50 nM Tat, 2 hours) was “increased intracellular ROS production relative to cultures treated with 50 nM Tat alone”. Also, in data set [4] (48 hours of treatment), the “difference in DCF fluorescence, Tat+cocaine vs Tat” value is recorded as “not significant”. Moreover, the “DCF fluorescence, cocaine alone” value in data set [4] (cocaine alone) is on record as “did not cause changes in DCF fluorescence”.
